Measured values: patent US8715947B2, “Inhibition of the interaction between 5T4 oncofoetal glycoproteins and CXC chemokine receptors as a method of identifying chemotaxis inhibitors” (Cancer Research Technology Limited, priority 2009, dated 2014)
“Also recorded” adds a separate entry of the source.

Assays:
[1] = tested on: WT-ES cells; assay: CXCL12 chemotaxis of WT-ES cells in transwell chambers; type: cell-based, mouse
Protocol: (§1) Chemotaxis was assessed using transwell chambers as previously described for cellular motility assays [16; the contents of which are expressly incorporated herein in their entirety] in the presence or absence of the chemokine CXCL12 (R&D systems), at a concentration of 10 ng/well for ES cell experiments, and 30 ng/well for all others. Inhibition studies were performed in the presence of 10 μM Diprotin A (Sigma) for CD26, 10 μM AMD3100 (Sigma) for CXCR4 or 10 μg/well mouse anti-CXCL12 (R&D systems) or Pertussis Toxin (Sigma, 10 ng/ml). For m5T4 specific mAb inhibition of chemotaxis or control Ig; antibodies were premixed with 50,000 differentiating WT-ES or MEF cells/ml and added to the transwell chambers as above. CXCL16 (R&D 10 ng/ml), the ligand for CXCR6 and CXCL10 (R&D 100 ng/ml), a ligand for CXCR3 were used to assess chemotaxis in undifferentiated and/or differentiating WT and 5T4KO ES cells.

[2] = tested on: ERK phosphorylation; assay: ERK phosphorylation in MEFs by Western blot; type: cell-based, mouse; settings: 50 μM PD98059, 50 μM LY294002 or 10 μM AMD3100; for increase in ERK phosphorylation in response to CXCL12 stimulation: WT MEFs; for increase in ERK1/2 phosphorylation in response to PMA stimulation: WT and 5T4KO MEFs
Protocol: Western blots were carried out using a BioRad Mini-PROTEAN Tetra (Thermo Fisher) supplemented with protease and phosphatase inhibitor cocktails (Thermo Fisher). RIPA buffer (50 mM Tris-Cl pH 7.4, 150 mM NaCl, 1% NP40, 0.25% Na-deoxycholate, 1 mM PMSF and protease and phosphatase inhibitor cocktail) was used as an alternative method of cell lysis. […] Other primary antibodies used were ERK1/2, phospho-ERK1/2 (Thr202/Tyr204/Thr185/Tyr187), AKT and phospho-AKT (Thr308) (Cell Signalling Technology) at 1:1000. Following secondary antibody labelling using appropriate HRP conjugates (AbSerotec) hybridizing bands were detected using SuperSignal West Dura (Thermo Fischer). For immunoprecipitation experiments cells were lysed in M-PER (Thermo Fischer) according to manufacturer's instructions and enriched for the membrane fraction on a 45% sucrose gradient by ultracentrifugation. 100 μg of the membrane enriched fraction was incubated with 1 μg of rabbit polyclonal anti-CXCR4 (Abcam) or 1 μg of mouse anti-monoclonal h5T4 or appropriate irrelevant control antibodies for 1 hour at room temperature. A 50% slurry of Protein G beads (Amersham) was then added and incubated for 1 hour at room temperature. Beads were subsequently washed 7 times with 1 ml PBS+0.1% Triton X-100, and then resuspended in PAGE loading buffer (Thermo Fisher), boiled for 3 minutes and loaded onto 4-15% gradient gel and processed as described for Westerns above. Gels were run in Lamelli buffer (25 mM Tris-base, 192 mM glycine, 0.1% SDS). Antibodies to CXCR7 were used in western blot analysis of PAGE separated MEF cells solubilised 1%.

[3] = target: T1, CXCR4 (Mus musculus, UniProt P70658); settings: in vivo; cited from earlier work
T1 sequence (P70658 whole entry): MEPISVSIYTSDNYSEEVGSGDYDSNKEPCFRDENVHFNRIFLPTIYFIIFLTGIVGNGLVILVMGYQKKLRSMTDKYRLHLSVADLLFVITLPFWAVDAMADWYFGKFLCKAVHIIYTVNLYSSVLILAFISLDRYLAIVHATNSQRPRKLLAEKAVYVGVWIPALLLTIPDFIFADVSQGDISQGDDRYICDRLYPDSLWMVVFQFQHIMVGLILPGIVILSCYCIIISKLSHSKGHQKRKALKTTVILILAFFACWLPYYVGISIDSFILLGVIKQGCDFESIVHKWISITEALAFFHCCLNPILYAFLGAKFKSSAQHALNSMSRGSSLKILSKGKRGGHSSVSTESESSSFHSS

[4] = target: T1, CXCR4; settings: in vivo; cited from earlier work; remark: listed apart in the source
[5] = tested on: primary murine embryonic fibroblasts; assay: Immunofluorescence pattern of 5T4 and CXCR4 in primary murine embryonic fibroblasts after cytoskeleton, Golgi or microtubule disruption; type: cell-based, mouse; settings: for cell surface expression and colocalisation of 5T4 and CXCR4 versus untreated controls: 985 nM cytochalasin D or 3.6 μM brefeldin A; for cell surface expression and colocalisation of 5T4 and CXCR4 after washout: one hour after washout
Protocol: Immunofluorescence In Situ. These studies were performed using methods described previously (39), with cells grown on 24 well glass bottomed plates, (Iwaki, supplied through Jencons) for ES cells the wells were pre coated with 0.1% gelatine. Primary antibodies used were rabbit anti-CXCR4, (5 μg/ml) (Abcam), rat-anti-DPIV (5 μg/ml), (R&D), mAb anti-human 5T4 (10 μg/ml,), mAb anti-m5T4, 9A7 (20 μg/ml), B3F1 (5 μg/ml), rabbit anti-CXCR7 (AbCam, 5 μg/ml), rat mAb anti-CXCR6 (R&D, 5 μg/ml), rat mAb anti-CXCR3 (R&D, 5 μg/ml), Alexa Fluor 488 mouse anti-myc tag clone 4A6 (Millipore) or appropriate isotype controls. Secondary detection was performed by incubation for 1 hour at 4° C. with species or IgG sub-class specific Alexa Fluor conjugated secondary antibodies (Invitrogen) (6 μg/ml) as appropriate for multiple antigen detection. Labelling of the endoplasmic reticulum and Golgi apparatus was performed using NBD C6-Ceramide or Endotracker, (Invitrogen, Molecular Probes) as per manufacturer's instructions. […]. F-Actin was labeled using Phaloidin-633 Alexa Fluor (Invitrogen). Microtubules were visualised by murine IgG recognizing β-tubulin (Cancer Research UK). Cells were imaged on a Zeiss Axiovert 200M with a plan-fluar ×100 1.45NA objective lens and a Roper Cascade EMCCD 512B camera. Illumination was achieved using a 300W Xenon system, (Sutter) which presented the system as an even field of illumination in addition to the appropriate neutral density and Schott filters to modulate the light source. Wavelength selection was achieved using external filter wheels, (Applied Scientific Instrumentation) and the ETSedat set, (Chroma). Data sets were captured with an axial resolution of 100 nm using the MS-2000 stage (Applied Scientific Instrumentation) and a lateral resolution of 0.1645 microns per pixel. The system was full controlled and automated via the FRAP-AI software, (MAG Biosystems/Metamorph). All of the data sets were deconvolved using Huygens (Scientific Volume Imaging) after which visualization and analysis was carried out using Imaris, (Bitplane). Colocalisation was assessed by analysis of the deconvolved images utilising ImarisColoc software (Bitplane) in manual mode. A 2D scatter plot showing intensity pairs in the image was thresholded to include only colocalized points in the three dimensional volume.
Primary murine embryonic fibroblasts were assessed for their pattern of 5T4 and CXCR4 expression by immunofluorescence following disruption of the cytoskeleton, Golgi or microtubules for 24 hours with cytochalasin D, brefeldin A or nocodazole respectively. Cytoskeleton, Golgi and microtubule disruption was determined by immunofluorescence with AlexaFluor 633 conjugated phalloidin, BODIPY labeled NBD C6 ceramide and anti-tubulin antibodies respectively. […] Clearly plasma membrane detection of co-localized 5T4/CXCR4 molecules is dependent on microtubules and the molecules are not obligatorily associated at the Golgi.

[6] = tested on: WT and 5T4KO ES cells; assay: CXCL10 chemotaxis of ES cells; type: cell-based, mouse; settings: 100 ng/well CXCL10
[7] = tested on: SKOV3; assay: CXCL12 chemotaxis of SKOV3 ovarian carcinoma cells; type: cell-based, human; settings: 10 μM diprotin A, 10 ng/well CXCL12
Protocol: as §1, with “at a concentration of 10 ng/well for ES cell experiments, and 30 ng/well for all others.” left out
A series of 5T4 constructs were built for this study and cloned into pCMVα, and the retroviral vector SFβ91 [32] that we had previously inserted the cDNA cassette eGFP under the transcriptional control of an IRES (Clonetech). […] A multiplicity of 30 infectious units per cell led to 100% of cells expressing m5T4 or h5T4 or GFP at 48 hours as assessed by FACS and when other biological assessments were made. […] After 3 days, GFP positive cells were FACS sorted and assessed for 5T4 expression and chemotaxis to CXCL12.

[8] = tested on: CAOV3; assay: CXCL12 chemotaxis of CAOV3 ovarian carcinoma cells; type: cell-based, human; settings: 10 μM diprotin A, 10 ng/well CXCL12
Protocol: as §1, with “at a concentration of 10 ng/well for ES cell experiments, and 30 ng/well for all others.” left out

[9] = tested on: JEG-3; assay: CXCL12 chemotaxis of JEG-3 choriocarcinoma cells; type: cell-based, human; settings: 10 μM diprotin A, 30 ng/well CXCL12
Protocol: as §1

[10] = tested on: 5T4KO ES cells; assay: CXCL12 chemotaxis of 5T4KO ES cells in transwell chambers; type: cell-based, mouse; settings: undifferentiated or differentiating 5T4KO ES cells; 10 μM
Protocol: as §1

## c1cc(CN2CCCNCCNCCCNCC2)ccc1CN1CCCNCCNCCCNCC1 [AMD3100]
[1]; differentiating WT-ES cells, 2 hr pre-incubation with 10 μM
  chemotaxis to CXCL12 with CXCR4 inhibitor: blocked
[1]; undifferentiated WT-ES cells, 10 μM
  chemotaxis to CXCL12 with CXCR4 inhibitor: no effect
[2]
  increase in ERK phosphorylation in response to CXCL12 stimulation: prevented
  increase in ERK1/2 phosphorylation in response to PMA stimulation: independent of both CXCR4 and PI3K activity
[3]
  allergic lung inflammation and airway hyperreactivity: attenuates

## c1ccc(CNCc2ccc(CN3CCCNCCNCCCNCC3)cc2)nc1 [AMD3465]
[4]
  pulmonary granuloma formation: eliminates

## COc1cccc(-c2cc(=O)c3ccccc3o2)c1N [PD98059]
[2]
  increase in ERK phosphorylation in response to CXCL12 stimulation: prevented
  increase in ERK1/2 phosphorylation in response to PMA stimulation: blocked by MEK1 inhibition

## C[C@H]1CCC/C=C/[C@@H]2C[C@H](O)C[C@H]2[C@H](O)/C=C/C(=O)O1 [brefeldin A]
[5]; 24 hours
  cell surface expression and colocalisation of 5T4 and CXCR4 versus untreated controls: reduced levels of cell surface expression of both antigens
[5]
  cell surface expression and colocalisation of 5T4 and CXCR4 after washout: returned to normal levels; also recorded: returned to levels with marked cell surface colocalisation similar to that of controls

## C=C1[C@@H](C)[C@H]2[C@H](Cc3ccccc3)NC(=O)[C@]23[C@H](OC(C)=O)/C=C/[C@@](C)(O)C(=O)[C@@H](C)C/C=C/[C@H]3[C@@H]1O [cytochalasin D]
[5]; 24 hours treatment, 985 nM cytochalasin D
  polymerized actin filaments (phalloidin immunofluorescence): no polymerized actin filaments were detectable
[5]; 24 hours
  cell surface expression and colocalisation of 5T4 and CXCR4 versus untreated controls: no detectable differences

## CC[C@H](C)[C@H](N)C(=O)N1CCC[C@H]1C(=O)N[C@H](C(=O)O)[C@@H](C)CC [diprotin A]
[6]; undifferentiated ES cells, 10 μM
  chemotaxis towards CXCL10 with CD26 inhibitor: acquire increased chemotaxis towards CXCL10
[7]
  CXCL12 chemotaxis with CD26 inhibitor: further enhanced
[8]
  CXCL12 chemotaxis with CD26 inhibitor: further enhanced
[9]
  CXCL12-mediated chemotaxis with CD26 inhibitor: only evident in the presence
[10]
  chemotactic response to CXCL12 with CD26 inhibitor: did not restore chemotactic behaviour; also recorded: no change in chemotactic response

## COC(=O)Nc1nc2ccc(C(=O)c3cccs3)cc2[nH]1 [nocodazole]
[5]; 24 hours, 332 nM nocodazole
  cell surface detection of 5T4: remained detectable at the cell surface albeit at a diminished level; also recorded: still detectable at the cell surface albeit at a diminished level
  cell surface detection of CXCR4: no cell surface detection of CXCR4
[5]
  cell surface expression and colocalisation of 5T4 and CXCR4 after washout: both antigens were detectable at the cell surface with marked colocalisation similar to controls

## pertussis toxin
[6]; WT and KO differentiating ES cells, 10 ng/ml
  CXCL10 related chemotaxis with Gi protein inhibitor: inhibits CXCL10 related chemotaxis
